Results taken from ChEMBL document CHEMBL1201862, “PubChem BioAssay data set” (2004).
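The compound was tested at five concentrations on cells cultured in 96-well plates, with a 48-hour exposure period. The concentration for 50% growth inhibition is given as GI50.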 Active and inactive are the calls of the source. No stated cut-off is given here; in the data, active = GI50 up to about 1.1 µM and inactive = higher.

Assays:
Assay in all cases: DTP human tumour cell line panel, 48 h
BT-549 = test system: BT-549
CAKI-1 = test system: CAKI-1
COLO 205 = test system: COLO 205
DU-145 = test system: DU-145
HCT-15 = test system: HCT-15
HL-60 = test system: HL-60
HOP-92 = test system: HOP-92
KM-20L2 = test system: KM-20L2
Malme-3M = test system: Malme-3M
NCI-H226 = test system: NCI-H226
NCI-H23 = test system: NCI-H23
NCI-H460 = test system: NCI-H460
NCI-H522 = test system: NCI-H522
OVCAR-5 = test system: OVCAR-5
RXF 393 = test system: RXF 393
SK-MEL-28 = test system: SK-MEL-28
SK-MEL-5 = test system: SK-MEL-5
SK-OV-3 = test system: SK-OV-3
SW-620 = test system: SW-620
UO-31 = test system: UO-31

With `CCCCCCCCCCCC(=O)OC[C@@H](C[As](=O)(O)O)OC(=O)CCCCCCCCCCC` the GI50 (BT-549) was 3.48 µM (inactive), the GI50 (CAKI-1) was 11.1 µM (inactive) and the GI50 (COLO 205) was 17 µM (inactive). The GI50 (DU-145) was 18.1 µM (inactive), the GI50 (HCT-15) was 9.04 µM and the GI50 (HL-60) was 2.95 µM (inactive). The GI50 (HOP-92) was 1.71 µM (inactive), the GI50 (KM-20L2) was 13.4 µM (inactive) and the GI50 (Malme-3M) was 3.41 µM (inactive). The GI50 (NCI-H226) was 16.4 µM (inactive), the GI50 (NCI-H23) was 5.69 µM (inactive) and the GI50 (NCI-H460) was 3.61 µM (inactive). The GI50 (NCI-H522) was 2.47 µM (inactive), the GI50 (OVCAR-5) was 16.3 µM (inactive) and the GI50 (RXF 393) was 2.43 µM (inactive). The GI50 (SK-MEL-28) was 4.54 µM (inactive), the GI50 (SK-MEL-5) was 1.82 µM (inactive) and the GI50 (SK-OV-3) was 12.4 µM (inactive). The GI50 (SW-620) was 15 µM (inactive) and the GI50 (UO-31) was 14.8 µM (inactive).

With `C=C1C(=O)OC2/C=C(/C)C3CC(O)C(C)(CC(OC(=O)/C(C)=C/C)C12)O3` (centres undefined) the GI50 (CAKI-1) was 1.97 µM (inactive), the GI50 (COLO 205) was 1.52 µM (inactive) and the GI50 (HCT-15) was 1.76 µM. For the same compound, the GI50 (HL-60) was 0.759 µM (active), the GI50 (HOP-92) was 2.98 µM (inactive) and the GI50 (KM-20L2) was 2.32 µM (inactive). The GI50 (Malme-3M) was 2.28 µM (inactive), the GI50 (NCI-H226) was 14.7 µM (inactive) and the GI50 (NCI-H23) was 4.49 µM (inactive). For the same compound, the GI50 (NCI-H460) was 6.18 µM (inactive), the GI50 (NCI-H522) was 1.6 µM (inactive) and the GI50 (OVCAR-5) was 8.61 µM (inactive). For the same compound, the GI50 (RXF 393) was 1.52 µM (inactive), the GI50 (SK-MEL-28) was 2.52 µM (inactive) and the GI50 (SK-MEL-5) was 4.68 µM (inactive). The GI50 (SK-OV-3) was 36.1 µM (inactive), the GI50 (SW-620) was 1.65 µM (inactive) and the GI50 (UO-31) was 5.86 µM (inactive).

With `COC(=O)[C@H]1C=C[C@@H](C)n2c(=O)c3ccccc3c(=O)n21` the GI50 (CAKI-1) was > 100 µM (inactive), the GI50 (COLO 205) was > 100 µM (inactive) and the GI50 (HCT-15) was over 100 µM. The GI50 (HL-60) was > 100 µM (inactive), the GI50 (HOP-92) was > 100 µM (inactive) and the GI50 (KM-20L2) was > 100 µM (inactive). The GI50 (Malme-3M) was > 100 µM (inactive), the GI50 (NCI-H226) was > 100 µM (inactive) and the GI50 (NCI-H23) was > 100 µM (inactive). The GI50 (NCI-H460) was > 100 µM (inactive), the GI50 (NCI-H522) was > 100 µM (inactive) and the GI50 (OVCAR-5) was > 100 µM (inactive). For the same compound, the GI50 (RXF 393) was > 100 µM (inactive), the GI50 (SK-MEL-28) was > 100 µM (inactive) and the GI50 (SK-MEL-5) was > 100 µM (inactive). The GI50 (SK-OV-3) was > 100 µM (inactive), the GI50 (SW-620) was > 100 µM (inactive) and the GI50 (UO-31) was > 100 µM (inactive).

With `[N-]=[N+]=Nc1ncnc2c1sc(=S)n2-c1ccccc1` the GI50 (CAKI-1) was > 100 µM (inactive), the GI50 (COLO 205) was > 100 µM (inactive) and the GI50 (HCT-15) was over 100 µM. The GI50 (HL-60) was 84.9 µM (inactive), the GI50 (HOP-92) was > 100 µM (inactive) and the GI50 (KM-20L2) was > 100 µM (inactive). For the same compound, the GI50 (Malme-3M) was > 100 µM (inactive), the GI50 (NCI-H226) was > 100 µM (inactive) and the GI50 (NCI-H23) was > 100 µM (inactive). For the same compound, the GI50 (NCI-H460) was > 100 µM (inactive), the GI50 (NCI-H522) was > 100 µM (inactive) and the GI50 (OVCAR-5) was > 100 µM (inactive). For the same compound, the GI50 (RXF 393) was > 100 µM (inactive), the GI50 (SK-MEL-28) was > 100 µM (inactive) and the GI50 (SK-MEL-5) was > 100 µM (inactive). For the same compound, the GI50 (SK-OV-3) was > 100 µM (inactive), the GI50 (SW-620) was > 100 µM (inactive) and the GI50 (UO-31) was > 100 µM (inactive).
